Results on 19 compounds are retold here after patent publication US8895571B2, “Isoindolinone and pyrrolopyridinone derivatives as Akt inhibitors” (Incyte Corporation, priority 2011, dated 2014).

The target of one assay is T1, Full length Akt1 (Homo sapiens, UniProt P31749).
T1 construct: Full length Akt1 (cat #P2999); purchased PerkinElmer P2999
As to the kind of experiment: In vitro Akt kinase enzymatic assay (HTRF), Akt1. In kind it is biochemical. Conditions: 0.4 nM Akt1, substrate solution with 5 mM ATP, 25° C. 1 hr. In outline:
(§1)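 Full-length enzyme (0.4 nM Akt1 or 0.6 nM Akt2/Akt3 in the enzyme solution) was combined with a substrate solution of 0.1 μM ULight-Crosstide plus 5 mM ATP in pH 7.8 HEPES/MgCl2/DTT/Tween20 buffer and reacted 1 hr at 25° C. The EDTA stop contained Eu anti-phospho-Crosstide; IC50 was fitted from 11-point HTRF inhibition curves.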
(In general: TR-FRET usually uses a lanthanide donor and a delayed reading to cut background.)

For another assay, the target named is T2, Full length Akt2 (Homo sapiens, UniProt P31751).
T2 construct: Full length Akt1 (cat #P2999), Akt2 (cat #PV3184); purchased PerkinElmer PV3184
T2 sequence (P31751 whole entry): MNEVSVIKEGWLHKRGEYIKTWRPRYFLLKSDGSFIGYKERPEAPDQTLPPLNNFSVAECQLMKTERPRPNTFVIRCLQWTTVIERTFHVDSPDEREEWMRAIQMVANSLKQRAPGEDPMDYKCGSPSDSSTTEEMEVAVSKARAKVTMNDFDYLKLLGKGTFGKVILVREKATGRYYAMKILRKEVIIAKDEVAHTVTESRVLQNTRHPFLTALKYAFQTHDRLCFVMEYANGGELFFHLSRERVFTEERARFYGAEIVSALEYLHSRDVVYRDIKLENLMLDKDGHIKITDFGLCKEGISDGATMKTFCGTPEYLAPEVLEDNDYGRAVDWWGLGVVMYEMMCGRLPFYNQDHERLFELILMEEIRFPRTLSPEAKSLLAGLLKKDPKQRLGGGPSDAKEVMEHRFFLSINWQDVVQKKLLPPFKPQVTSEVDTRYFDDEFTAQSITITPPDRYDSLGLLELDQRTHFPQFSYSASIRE
In words: In vitro Akt kinase enzymatic assay (HTRF), Akt2. Type of assay: biochemical. Conditions: 0.6 nM Akt2, substrate solution with 5 mM ATP, 25° C. 1 hr. In outline:
as §1

The target in another assay is T3, Full length Akt3 (Homo sapiens, UniProt Q9Y243).
T3 construct: Full length Akt1 (cat #P2999), Akt2 (cat #PV3184), Akt3 (cat #PV3185); purchased PerkinElmer PV3185
T3 sequence (Q9Y243 whole entry): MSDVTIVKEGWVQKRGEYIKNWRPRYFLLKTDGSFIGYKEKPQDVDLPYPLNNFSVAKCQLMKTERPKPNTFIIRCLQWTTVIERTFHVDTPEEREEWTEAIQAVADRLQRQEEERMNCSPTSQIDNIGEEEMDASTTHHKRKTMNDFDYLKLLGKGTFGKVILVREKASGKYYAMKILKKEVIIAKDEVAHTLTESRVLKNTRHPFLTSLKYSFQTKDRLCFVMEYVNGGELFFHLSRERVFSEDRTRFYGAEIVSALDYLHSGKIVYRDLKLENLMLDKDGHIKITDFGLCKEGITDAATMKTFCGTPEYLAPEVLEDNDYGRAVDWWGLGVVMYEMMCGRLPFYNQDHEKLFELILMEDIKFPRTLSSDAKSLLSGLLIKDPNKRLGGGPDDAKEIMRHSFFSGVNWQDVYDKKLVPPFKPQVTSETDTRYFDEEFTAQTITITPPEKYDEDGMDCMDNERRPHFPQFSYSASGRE
In words: In vitro Akt kinase enzymatic assay (HTRF), Akt3. Type of assay: biochemical. Conditions: 0.6 nM Akt3, substrate solution with 5 mM ATP, 25° C. 1 hr. In outline:
as §1

Another assay concerns the target T4, Full length PKA (Homo sapiens, UniProt P17612).
T4 construct: Full length PKA (cat #P2912); purchased Invitrogen P2912
As to the kind of experiment: PKA in vitro enzymatic assay (HTRF). In kind it is biochemical. The following applies: 0.035 nM enzyme solution, substrate solution with 5 mM ATP, 25° C. 1 hr. In outline:
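IC50 came from curve fitting of percent inhibition across an 11-point, 3-fold compound series, with HTRF read after EDTA quench and Tb-labelled p-S133 antibody detection. Enzyme (0.035 nM solution) and substrate (0.1 μM fluorescein-CREBtide solution containing 5 mM ATP) reacted for 1 h at 25°C. The buffer was HEPES 50 mM pH 7.8 with 10 mM MgCl2, 5 mM DTT and 0.005% Tween20.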

For assay [1], the system named is LNCaP cells (human prostate tumor cell line). As to the kind of experiment: Akt LNCaP proliferation assay (MTS). In kind it is cell-based. Conditions: 48 hours. In outline: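 Cells plated at 10,000/well in RPMI with 2% FBS overnight at 37° C., 5% CO2, then exposed to compound at 1000 nM to 0.5 nM (3-fold dilutions) for 48 hours. Viable cells measured by MTS colorimetric read-out after 2 hours; IC50 taken as concentration giving 50% inhibition of total proliferation.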

The mark [2] stands for this setting: 2% fetal bovine serum, class symbols.
Where [3] appears, read: given as a bound, final concentrations 1000 nM to 0.5 nM.

pIC50: −log10 of the molar value.

T1 sequence (P31749 whole entry): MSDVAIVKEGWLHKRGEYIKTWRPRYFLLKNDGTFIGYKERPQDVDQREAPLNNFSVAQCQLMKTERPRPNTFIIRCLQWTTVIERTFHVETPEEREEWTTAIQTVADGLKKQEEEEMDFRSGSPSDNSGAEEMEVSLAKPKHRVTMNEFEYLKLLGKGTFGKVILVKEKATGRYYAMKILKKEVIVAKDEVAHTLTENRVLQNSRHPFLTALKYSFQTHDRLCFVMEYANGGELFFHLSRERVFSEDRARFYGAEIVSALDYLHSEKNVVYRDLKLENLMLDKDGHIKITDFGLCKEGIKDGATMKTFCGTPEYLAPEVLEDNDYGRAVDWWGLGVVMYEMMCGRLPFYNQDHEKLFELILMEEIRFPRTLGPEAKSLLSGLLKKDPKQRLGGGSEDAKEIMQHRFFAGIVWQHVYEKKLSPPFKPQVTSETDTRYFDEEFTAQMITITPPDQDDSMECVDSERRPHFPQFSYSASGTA

As usually defined, the pIC50 is −log10 of the IC50, conventionally taken in molar units. The low end stands for a large IC50, the high end for a small IC50. Consider `Cn1nccc1-c1cc2c(cn1)C(=O)N([C@H](CN)CC1CCCCC1)C2` [Example 134, 2-[(1S)-2-amino-1-(cyclohexylmethyl)ethyl]-6-(1-methyl-1H-pyrazol-5-yl)-1,2-dihydro-3H-pyrrolo[3,4-c]pyridin-3-one], for which the pIC50 (at Full length Akt1; at Full length Akt2; on Full length Akt3; against Full length PKA; in assay [1] (setting [2])) was more than 6.30 each time.
Turning to `Cn1nccc1-c1cc2c(cn1)C(=O)N([C@H](CN)Cc1cc(F)cc(F)c1)C2` [Example 102, 2-[(1S)-2-amino-1-(3,5-difluoro-benzyl)ethyl]-6-(1-methyl-1H-pyrazol-5-yl)-1,2-dihydro-3H-pyrrolo[3,4-c]pyridin-3-one], the pIC50 at Full length Akt1 was more than 6.30; on Full length Akt2, more than 6.30; against Full length Akt3 it was more than 6.30; against Full length PKA, 5.30 to 6.30; in assay [1] (setting [2]), more than 6.30.
On to `Cn1ncc(COCC2CC2)c1-c1ccc2c(c1)CN([C@H](CN)Cc1cc(F)cc(F)c1)C2=O` [Example 48, 2-[(1S)-2-amino-1-(3,5-difluorobenzyl)ethyl]-5-[4-(cyclopropylmethoxymethyl)-1-methyl-1H-pyrazol-5-yl]isoindolin-1-one], for which the pIC50 on Full length Akt1 is more than 6.30; on Full length Akt2 it was more than 6.30; at Full length Akt3, more than 6.30; against Full length PKA, 5.30 to 6.30; in assay [1] (setting [2]) it was more than 6.30.
Regarding `Cn1ncc(Cl)c1-c1ccc2c(c1)CN([C@H](CN)Cc1cccs1)C2=O` [Example 67, 2-[(1S)-2-amino-1-(2-thienylmethyl)ethyl]-5-(4-chloro-1-methyl-1H-pyrazol-5-yl)isoindolin-1-one], the pIC50 on Full length Akt1 is more than 6.30; on Full length Akt2 it was more than 6.30; against Full length Akt3, more than 6.30; against Full length PKA it was 5.30 to 6.30; in assay [1] (setting [2]), more than 6.30.
Turning to `Cn1ncc(Cl)c1-c1cc2c(cn1)C(=O)N([C@H](CN)CC1CCCCC1)C2` [Example 135, 2-[(1S)-2-amino-1-(cyclohexylmethyl)ethyl]-6-(4-chloro-1-methyl-1H-pyrazol-5-yl)-1,2-dihydro-3H-pyrrolo[3,4-c]pyridin-3-one], the negative-log IC50 (pIC50) is more than 6.30 on Full length Akt1; more than 6.30 at Full length Akt2; more than 6.30 at Full length Akt3; 5.30 to 6.30 on Full length PKA; more than 6.30 in assay [1] (setting [2]).
For the compound `Cn1ncc(F)c1-c1ccc2c(c1)CN([C@H](CN)Cc1cc(F)cc(F)c1)C2=O` [Example 51, 2-[(1S)-2-amino-1-(3,5-difluorobenzyl)ethyl]-5-(4-fluoro-1-methyl-1H-pyrazol-5-yl)isoindolin-1-one], the pIC50 (against Full length Akt1; against Full length Akt2; at Full length Akt3; on Full length PKA; in assay [1] (setting [2])) was more than 6.30 each time.
For the compound `C#Cc1cccc(C[C@@H](CN)N2Cc3cc(-c4c(Cl)cnn4C)ccc3C2=O)c1` [Example 89, 2-[(1S)-2-amino-1-(3-ethynylbenzyl)ethyl]-5-(4-chloro-1-methyl-1H-pyrazol-5-yl)isoindolin-1-one], the pIC50 at Full length Akt1 was more than 6.30; on Full length Akt2, more than 6.30; against Full length Akt3 it was more than 6.30; against Full length PKA it was 5.30 to 6.30; in assay [1] (setting [2]), more than 6.30.
On to `CC(C)OCc1cnn(C)c1-c1cc2c(cn1)C(=O)N([C@H](CN)Cc1cc(F)cc(F)c1)C2` [Example 106, 2-[(1S)-2-amino-1-(3,5-difluoro-benzyl)ethyl]-6-[4-(2-propoxy-methyl)-1-methyl-1H-pyrazol-5-yl]-1,2-dihydro-3H-pyrrolo[3,4-c]pyridin-3-one], for which the pIC50 against Full length Akt1 is more than 6.30; at Full length Akt2 it was more than 6.30; against Full length Akt3 it was more than 6.30; against Full length PKA, less than 5.30; in assay [1] (setting [2]), more than 6.30.
`Cn1ncc(Cl)c1-c1ccc2c(c1)CN([C@H](CN)CC1CCCCC1)C2=O` [Example 132, 2-[(1S)-2-amino-1-(cyclohexylmethyl)ethyl]-5-(4-chloro-1-methyl-1H-pyrazol-5-yl)isoindolin-1-one]: the pIC50 was more than 6.30 at Full length Akt1; more than 6.30 against Full length Akt2; more than 6.30 against Full length Akt3; 5.30 to 6.30 at Full length PKA; more than 6.30 in assay [1] (setting [2]).
For the compound `Cn1ncc(Cl)c1-c1ccc2c(c1)CN([C@H](CN)Cc1cccc(C#N)c1)C2=O` [Example 62, 3-{(2S)-3-amino-2-[5-(4-chloro-1-methyl-1H-pyrazol-5-yl)-1-oxo-1,3-dihydro-2H-isoindol-2-yl]propyl}benzonitrile], the pIC50 at Full length Akt1 is more than 6.30; against Full length Akt2 it was more than 6.30; against Full length Akt3, more than 6.30; on Full length PKA it was less than 5.30; in assay [1] (setting [2]), more than 6.30.
Consider `CCCOCc1cnn(C)c1-c1cc2c(cn1)C(=O)N([C@H](CN)Cc1cc(F)cc(F)c1)C2` [Example 107, 2-[(1S)-2-amino-1-(3,5-difluoro-benzyl)ethyl]-6-[4-(1-propoxy-methyl)-1-methyl-1H-pyrazol-5-yl]-1,2-dihydro-3H-pyrrolo[3,4-c]pyridin-3-one], for which the negative logarithm of the IC50 (pIC50) on Full length Akt1 was more than 6.30; against Full length Akt2 it was more than 6.30; against Full length Akt3, more than 6.30; against Full length PKA, less than 5.30; in assay [1] (setting [2]), more than 6.30.
`Cn1ncc(Cl)c1-c1ccc2c(c1)CN([C@H](CN)Cc1cscn1)C2=O` [Example 69, 2-[(1S)-2-amino-1-(1,3-thiazol-4-ylmethyl)ethyl]-5-(4-chloro-1-methyl-1H-pyrazol-5-yl)isoindolin-1-one]: the pIC50 is more than 6.30 against Full length Akt1; 5.30 to 6.30 at Full length Akt2; 5.30 to 6.30 against Full length Akt3; 5.30 to 6.30 against Full length PKA; less than 5.30 in assay [1] (setting [2]).
For `C#Cc1cccc(C[C@@H](CN)N2Cc3cc(-c4ccnn4C)ccc3C2=O)c1` [Example 88, 2-[(1S)-2-amino-1-(3-ethynylbenzyl)ethyl]-5-(1-methyl-1H-pyrazol-5-yl)isoindolin-1-one], the pIC50 is more than 6.30 against Full length Akt1; more than 6.30 against Full length Akt2; more than 6.30 against Full length Akt3; 5.30 to 6.30 on Full length PKA; more than 6.30 in assay [1] (setting [2]).
Take `Cn1nccc1-c1ccc2c(c1)CN([C@H](CN)Cc1cccc(-c3cccnc3)c1)C2=O` [Example 86, 2-[(1S)-2-amino-1-(3-pyridin-3-ylbenzyl)ethyl]-5-(1-methyl-1H-pyrazol-5-yl)isoindolin-1-one]: the pIC50 at Full length Akt1 is 5.30 to 6.30; on Full length Akt2 it was less than 5.30; against Full length Akt3, less than 5.30; on Full length PKA it was less than 5.30; in assay [1] (setting [3]), less than 6.00.
Take `Cn1ncc(Cl)c1-c1cc2c(cn1)C(=O)N([C@H](CN)Cc1ccccc1)C2` [Example 100, 2-((1S)-2-amino-1-benzylethyl)-6-(4-chloro-1-methyl-1H-pyrazol-5-yl)-1,2-dihydro-3H-pyrrolo[3,4-c]pyridin-3-one]: the pIC50 on Full length Akt1 is more than 6.30; against Full length Akt2, more than 6.30; against Full length Akt3 it was more than 6.30; against Full length PKA it was 5.30 to 6.30; in assay [1] (setting [2]), more than 6.30.
In the case of `Cn1ncc(Cl)c1-c1ccc2c(c1)CN([C@H](CN)Cc1ccsc1)C2=O` [Example 68, 2-[(1S)-2-amino-1-(3-thienylmethyl)ethyl]-5-(4-chloro-1-methyl-1H-pyrazol-5-yl)isoindolin-1-one], the pIC50 against Full length Akt1 was more than 6.30; against Full length Akt2, more than 6.30; on Full length Akt3, more than 6.30; against Full length PKA, 5.30 to 6.30; in assay [1] (setting [2]) it was more than 6.30.
For the compound `Cn1nccc1-c1ccc2c(c1)CN([C@H](CN)Cc1csc3ccccc13)C2=O` [Example 76, 2-[(1S)-2-amino-1-(1-benzothien-3-ylmethyl)ethyl]-5-(1-methyl-1H-pyrazol-5-yl)isoindolin-1-one], the pIC50 against Full length Akt1 is more than 6.30; against Full length Akt2, more than 6.30; against Full length Akt3, more than 6.30; against Full length PKA it was less than 5.30; in assay [1] (setting [2]) it was more than 6.30.
On to `Cn1nccc1-c1ccc2c(c1)CN([C@@H](CN)c1ccccc1)C2=O` [Example 116, 2-[(1R)-2-amino-1-phenylethyl]-5-(1-methyl-1H-pyrazol-5-yl)isoindolin-1-one], for which the negative logarithm of the IC50 (pIC50) at Full length Akt1 was more than 6.30; on Full length Akt2, more than 6.30; against Full length Akt3 it was 5.30 to 6.30; against Full length PKA, 5.30 to 6.30; in assay [1] (setting [2]), more than 6.30.
Consider `CC(C)Cn1nccc1-c1ccc2c(c1)CN([C@H](CN)Cc1cccc(F)c1)C2=O` [Example 129, 2-[(1S)-2-amino-1-(3-fluorobenzyl)ethyl]-5-(1-isobutyl-1H-pyrazol-5-yl)isoindolin-1-one], for which the pIC50 on Full length Akt1 is 5.30 to 6.30; on Full length Akt2, less than 5.30; on Full length Akt3, less than 5.30; against Full length PKA, less than 5.30; in assay [1] (setting [3]), less than 6.00.
